These results are taken from US20240376085A1 (Janssen Pharmaceutica NV, priority 2021, published 2024).

Assay [1] relates to IL-17A-induced G-CSF production in human normal keratinocyte (NHK). As to the kind of experiment: NHK assay: IL-17A-induced G-CSF production in normal human keratinocytes. Type of assay: cell-based. The following applies: 24 h, IL-17A 5 ng/mL, average if tested more than once. On the procedure: IL-17A acts directly on keratinocytes through binding to dimeric receptor IL-17RA/RC and drives the production of a number of inflammatory mediators known to be elevated in psoriasis lesional tissue. IL-17A small molecule inhibitors that block the IL-17A to interact with IL-17R would inhibit the IL-17A signaling in its targeted cells such as keratinocytes. The compound functional activity is evaluated for its impact on IL-17A-induced G-CSF production in human normal keratinocyte (NHK).
Adult normal human keratinocytes are cultured in keratinocyte growth medium (Lonza) in a flask till reaching ˜90% confluence, then cells are transferred to a 384-well plate at density of 3000-4000 cell/well. Recombinant human IL-17A (Gibco PHC9174) is pre-incubated with titrated compound or DMSO for 1 h at rt then added to the cell culture plate. The final concentration of IL-17A is 5 ng/mL and DMSO is 0.2%, in the culture containing 5% FBS. Cells are cultured/treated for 24 h at 37° C. Supernatants are collected and G-CSF production is measured through HTRF technology using Human G-CSF Kit (CisBio). G-CSF concentration was extrapolated from the standard curve and IC50 is determined using GraphPad Prism. Cell viability is also evaluated using CellTiter-Glo kit (Promega) and effect of compound on cell viability is compared to DMSO control.

Assay [2] addresses T1, IL-17A : IL-17RA binding (Homo sapiens, UniProt Q16552, K93Q).
T1 construct: Name: IL-17A-Flag
As to the kind of experiment: IL-17A(FLAG-tagged):IL-17RA(His-tagged) binding disruption Eu-HTRF assay, Protocol 1. The following applies: FLAG-IL-17A 2.5 nM at 2x final concentration; average if tested more than once. The text has this:
An antibody directed against the FLAG tag of IL-17A (SEQ ID NO: 1) is labeled with the HTRF donor chromophore (Europium-cryptate). IL-17A is present as a dimer that is “locked into” this quaternary structure due to the formation of loop-spanning […] disulfide bridges. The construct of IL-17RA used in the assay excludes the […] portion of the receptor and is fused to a C-terminal 10×His tag (SEQ ID NO:2). An antibody directed against the His tag of the IL-17RA chimera is labeled with the HTRF acceptor chromophore (“D2”). The fluorescence-resonance energy transfer (FRET) depends on the vicinity of the donor chromophore to the acceptor, and interruption of the binding between the IL-17A and IL-17RA causes the reduction/loss of FRET. Therefore, this assay allows to evaluate the compound effect on the binding IL-17A and IL-17RA by monitoring the fluorescence intensity of donor vs acceptor. The assay was run using either Protocol 1 or Protocol 2 as described below.
Protocol 1. 40 nl of 2-fold serial diluted compound solution for total 22 dilution points is added into each well of a 1536-well, white, low-volume, non-binding plate (Greiner #782904), then 2 μl of FLAG tagged IL-17A at 2× final concentration (2.5 nM) in solution of PBS+0.01% Triton-X100 is added to each well. The assay plate is briefly centrifuged then incubated for 1 h at rt. A mixed solution is prepared containing 2×5 nM 10HIS×IL-17RA, 2×2.5 nM Eu-anti-FLAG (CISBIO), 2×5 nM D2-anti-HIS (CISBIO) in PBS+0.01% Triton-X100+200 mM Potassium Fluoride (Sigma 60238) and 2 μl of mix is added to each well of the assay plate. The plate is briefly centrifuged then incubated for 2 h at rt. The HTRF intensities at the wavelength of donor (620 nm) and acceptor (665 nm) are measured using BMG Pherastar. The ratio between intensities at two wavelengths is calculated and plotted against the compound concentration and the data is fitted to a one-site competition model to yield IC50 of the compound.

T1 sequence (Q16552 with tags, fused parts or gaps K93Q): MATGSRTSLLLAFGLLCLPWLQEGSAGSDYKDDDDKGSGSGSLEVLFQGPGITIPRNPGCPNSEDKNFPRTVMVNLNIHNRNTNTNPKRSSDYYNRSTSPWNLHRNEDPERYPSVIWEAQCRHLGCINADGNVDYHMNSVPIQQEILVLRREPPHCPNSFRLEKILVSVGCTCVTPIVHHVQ

Broadly, the IC50 is the point on the concentration scale where inhibition reaches its midpoint. `Cn1nccc1C(=O)N[C@H](c1nc2cc(C(NC(=O)CCC(F)(F)F)C3CC3)ccc2[nH]1)C1CCC(F)(F)CC1` (single isomer, unassigned) [Example 54, N—((S)-(5-((S*)-Cyclopropyl(4,4,4-trifluorobutanamido)methyl)-1H-benzo[d]imidazol-2-yl)(4,4-difluorocyclohexyl)methyl)-1-methyl-1H-pyrazole-5-carboxamide]: the IC50 in assay [1] (Homo sapiens, Keratinocyte) was less than 0.05 µM; in assay [2], greater than 0.1 µM.
With `CC(C)c1scnc1C(=O)N[C@H](c1nc2cc([C@@H](C)NC(=O)CCC(F)(F)F)ccc2[nH]1)C1CCC(F)(F)CC1` [Example 200, N—((S)-(4,4-Difluorocyclohexyl)(5-((R)-1-(4,4,4-trifluorobutanamido)ethyl)-1H-benzo[d]imidazol-2-yl)methyl)-5-isopropylthiazole-4-carboxamide], the IC50 in assay [1] (Homo sapiens, Keratinocyte) was 0.05 to 0.1 µM; in assay [2], 0.05 to 0.1 µM.
As for `C[C@@H](NC(=O)CCC(F)(F)F)c1ccc2[nH]c([C@@H](NC(=O)c3ccn4c3CCC4)C3CCC(F)(F)CC3)nc2c1` [Example 210, N—((S)-(4,4-Difluorocyclohexyl)(5-((R)-1-(4,4,4-trifluorobutanamido)ethyl)-1H-benzo[d]imidazol-2-yl)methyl)-2,3-dihydro-1H-pyrrolizine-7-carboxamide], the IC50 in assay [1] (Homo sapiens, Keratinocyte) is greater than 0.1 µM; in assay [2], greater than 0.1 µM.
As to `COCC(NC(=O)CC1CC(F)(F)C1)c1ccc2[nH]c([C@H](COC(C)(C)C(F)(F)F)NC(=O)c3nonc3C3CC3)nc2c1` (single isomer, unassigned) [Example 165, 4-Cyclopropyl-N—((R)-1-(5-((S*)-1-(2-(3,3-difluorocyclobutyl)acetamido)-2-methoxyethyl)-1H-benzo[d]imidazol-2-yl)-2-((1,1,1-trifluoro-2-methylpropan-2-yl)oxy)ethyl)-1,2,5-oxadiazole-3-carboxamide], the IC50 is greater than 0.1 µM in assay [1] (Homo sapiens, Keratinocyte) and greater than 0.1 µM in assay [2].
`C[C@@H](NC(=O)CCC(F)(F)F)c1ccc2nc([C@@H](NC(=O)c3cc(F)ccc3F)C3CCC(F)(F)CC3)[nH]c2c1` [Example 123, N—((S)-(4,4-Difluorocyclohexyl)(6-((R)-1-(4,4,4-trifluorobutanamido)ethyl)-1H-benzo[d]imidazol-2-yl)methyl)-2,5-difluorobenzamide]: the half-maximal inhibitory concentration (IC50) is greater than 0.1 µM in assay [1] (Homo sapiens, Keratinocyte) and greater than 0.1 µM in assay [2].
`O=C(CC1CC(F)(F)C1)N[C@@H](c1ccc2nc([C@@H](NC(=O)c3nonc3C3CC3)[C@@H]3C[C@@H]4[C@H](C3)C4(F)F)[nH]c2c1)C1CC1` [Example 239, 4-Cyclopropyl-N—((S)-(6-((R)-cyclopropyl(2-(3,3-difluorocyclobutyl)acetamido)methyl)-1H-benzo[d]imidazol-2-yl)((1R,3s,5S)-6,6-difluorobicyclo[3.1.0]hexan-3-yl)methyl)-1,2,5-oxadiazole-3-carboxamide]: the IC50 is less than 0.05 µM in assay [1] (Homo sapiens, Keratinocyte) and less than 0.05 µM in assay [2].
As to `CC(C)c1snnc1C(=O)N[C@H](c1nc2cc([C@@H](C)NC(=O)CCC(F)(F)F)ccc2[nH]1)C1CCC(F)(F)CC1` [Example 206, N—((S)-(4,4-Difluorocyclohexyl)(5-((R)-1-(4,4,4-trifluorobutanamido)ethyl)-1H-benzo[d]imidazol-2-yl)methyl)-5-isopropyl-1,2,3-thiadiazole-4-carboxamide], the IC50 in assay [1] (Homo sapiens, Keratinocyte) was less than 0.05 µM; in assay [2], 0.05 to 0.1 µM.
For `CC(OCC(NC(=O)c1nonc1C1CC1)c1nc2ccc([C@H](NC(=O)CC3CC(F)(F)C3)C3CC3)cc2[nH]1)C(F)(F)F` (single isomer, unassigned) [Example 153, 4-Cyclopropyl-N-((1R*)-1-(6-((R)-cyclopropyl(2-(3,3-difluorocyclobutyl)acetamido)methyl)-1H-benzo[d]imidazol-2-yl)-2-((1,1,1-trifluoropropan-2-yl)oxy)ethyl)-1,2,5-oxadiazole-3-carboxamide] the same measures were greater than 0.1 µM and less than 0.05 µM.
In the same order, the values of `C[C@@H](NC(=O)CCC(F)(F)F)c1ccc2[nH]c([C@@H](NC(=O)c3cnn(CCCC(F)(F)F)n3)C3CCC(F)(F)CC3)nc2c1` [Example 19, N—[(S)-(4,4-Difluorocyclohexyl)-[6-[(1R)-1-(4,4,4-trifluorobutanoylamino)ethyl]-1H-benzimidazol-2-yl]methyl]-2-(4,4,4-trifluorobutyl)triazole-4-carboxamide] are 0.05 to 0.1 µM and greater than 0.1 µM.
For `Cc1nonc1C(=O)N[C@@H](C[C@H]1CCC(F)(F)C1)c1nc2ccc([C@H](NC(=O)CC3CC(F)(F)C3)C3CC3)cc2[nH]1` [Example 235, N—((S)-1-(6-((R)-Cyclopropyl(2-(3,3-difluorocyclobutyl)acetamido)methyl)-1H-benzo[d]imidazol-2-yl)-2-((R)-3,3-difluorocyclopentyl)ethyl)-4-methyl-1,2,5-oxadiazole-3-carboxamide] the same measures were greater than 0.1 µM and greater than 0.1 µM.
On to `CC(C)n1nccc1C(=O)N[C@H](c1nc2ccc([C@@H](C)NC(=O)CC(C)C(F)(F)F)cc2[nH]1)C1CCC(F)(F)CC1` (single isomer, unassigned) [Example 139, N—((S)-(4,4-Difluorocyclohexyl)(6-((R)-1-((S*)-4,4,4-trifluoro-3-methylbutanamido)ethyl)-1H-benzo[d]imidazol-2-yl)methyl)-1-isopropyl-1H-pyrazole-5-carboxamide], for which the values for the IC50 in assay [1] and in assay [2] were less than 0.05 µM and greater than 0.1 µM, respectively.
`CC(C)(C[C@H](NC(=O)c1nonc1C1CC1)c1nc2ccc([C@H](NC(=O)CC3CC(F)(F)C3)C3CC3)cc2[nH]1)C(F)(F)F` [Example 178, 4-Cyclopropyl-N—((S)-1-(6-((R)-cyclopropyl(2-(3,3-difluorocyclobutyl)acetamido)methyl)-1H-benzo[d]imidazol-2-yl)-4,4,4-trifluoro-3,3-dimethylbutyl)-1,2,5-oxadiazole-3-carboxamide]: the IC50 in assay [1] (Homo sapiens, Keratinocyte) is less than 0.05 µM; in assay [2], less than 0.05 µM.
Take `CC(C)(OC[C@H](NC(=O)c1nocc1C1CC1)c1nc2cc([C@H](NC(=O)CC3CC(F)(F)C3)C3CC3)ccc2[nH]1)C(F)(F)F` [Example 268, 4-Cyclopropyl-N—((R)-1-(5-((R)-cyclopropyl(2-(3,3-difluorocyclobutyl)acetamido)methyl)-1H-benzo[d]imidazol-2-yl)-2-((1,1,1-trifluoro-2-methylpropan-2-yl)oxy)ethyl)isoxazole-3-carboxamide]: the concentration for half-maximal inhibition (IC50) in assay [1] (Homo sapiens, Keratinocyte) is 0.05 to 0.1 µM; in assay [2] it was less than 0.05 µM.
Regarding `CC(C)n1nccc1C(=O)N[C@@H](CC(C)(C)C(F)(F)F)c1nc2ccc([C@H](NC(=O)CC3CC(F)(F)C3)C3CC3)cc2[nH]1` [Example 177, N—((S)-1-(6-((R)-Cyclopropyl(2-(3,3-difluorocyclobutyl)acetamido)methyl)-1H-benzo[d]imidazol-2-yl)-4,4,4-trifluoro-3,3-dimethylbutyl)-1-isopropyl-1H-pyrazole-5-carboxamide], the IC50 in assay [1] (Homo sapiens, Keratinocyte) is less than 0.05 µM; in assay [2] it was greater than 0.1 µM.
Take `C[C@@H](NC(=O)CCC(F)(F)F)c1ccc2[nH]c([C@@H](NC(=O)C34CC(C3)C4)C3CCC(F)(F)CC3)nc2c1` [Example 112, N—((S)-(4,4-Difluorocyclohexyl)(5-((R)-1-(4,4,4-trifluorobutanamido)ethyl)-1H-benzo[d]imidazol-2-yl)methyl)bicyclo[1.1.1]pentane-1-carboxamide]: the IC50 was greater than 0.1 µM in assay [1] (Homo sapiens, Keratinocyte) and greater than 0.1 µM in assay [2].
